Measurements: ChEMBL document CHEMBL3507680, “University of Dundee, Gates Library screen for HepG2 cell viability”

Experiment: Human HepG2 cell viability assay in 384 well format
Format: toxicity, cell-based
Parameters: dose 125 nL, time 70.5 hour; cytotoxicity at 70.5 h: concentration not given beside the values
Conditions: HepG2 cells, read-out: Inhibition

SMILES | cytotoxicity at 70.5 h [%]
O=C(Nc1cn[nH]c1)N1CCN(CCSc2ccccc2)CC1 | 1.53
Cc1cc(C2CCCN2C(=O)c2cnn(C)c2)on1 (centres undefined) | 14
COC(=O)c1ccc(C(=O)N2CCc3c(ncn3C3CC3)C2)cc1 | -5.37
O=C(Nc1cccc(F)c1)N1CCC(CO)(Nc2ccccc2)CC1 | -5.91
Cn1cc(-c2nc(C(=O)N3CCCC3c3cnn(C)c3)cs2)cn1 (centres undefined) | -5.1
CS(=O)(=O)c1ccccc1-n1cc(NC(=O)CC2C=CCC2)cn1 (centres undefined) | -6.16
Cc1ccc(C2CCCCCN2C(=O)Nc2cn[nH]c2)o1 (centres undefined) | -6.84
COc1ncccc1C(=O)Nc1cccc(C[S+](C)[O-])c1C (centres undefined) | -6.07
Cc1sc(NC(=O)CN(C)CCOc2cccc(F)c2)c(C)c1C | -2.66
CCOc1ccccc1C(=O)Nc1cccc(C[S+](C)[O-])c1C (centres undefined) | 15.1
O=S(=O)(CCOc1ccc(F)cc1)Nc1cnn(CC(F)F)c1 | -6.59
CCC(CC)C(O)CNC(=O)Cc1c[nH]c2ncccc12 (centres undefined) | -4.44
O=C(Cc1c[nH]c2ncccc12)NCC(O)c1ccsc1 (centres undefined) | 0.0548
Cc1ccncc1NS(=O)(=O)c1ccc(Cl)s1 | -3.59
CN(CC(C)(CO)CO)C(=O)Nc1cc(F)cc(F)c1 | 2.39
Cc1cc(F)cc(NC(=O)N(C)CC(C)(CO)CO)c1 | -1.87
N#CCCN(CCC#N)Cc1ccc(Br)c2cccnc12 | 4.54
CC(C)c1nnc(CN(C)Cc2ccccc2-c2ccccc2)o1 | -6.61
O=C(Nc1cnn(Cc2ccccc2)c1)N1CCN(CCO)CC1 | -4.22
CC(NCC1(N(C)C)CCOCC1)c1ccc(Cl)cc1 (centres undefined) | -3.88

SMILES | cytotoxicity at 70.5 h [%]
CC(=O)N(C)Cc1cccc(NC(=O)c2cnn(C)c2C)c1 | 22
O=C(c1csc(I)c1)N1CCc2c(ncn2C2CC2)C1 | -3.47
CN(C)c1ncccc1C(=O)N1CCc2c(ncn2C2CC2)C1 | -4.54
CN(C)CCN(CC1CCCO1)C(=O)Cc1cn2ccccc2n1 (centres undefined) | 17.3
COc1cc(Cl)c(NC(=O)c2cc3c([nH]c2=O)CCCC3=O)cc1OC | -7.89
CN(C)c1cc(C(=O)Nc2cccnc2N2CCSCC2)ccn1 | -9.49
CC(C)(C)c1ncc(C(=O)NCc2ccccc2CN2CCCC2)s1 | -6.15
O=C(Nc1cccnc1N1CCSCC1)c1ccc2c(c1)CCC2 | -3.24
Cc1nnc2n1CCN(C(=O)C1CCC(n3cccc3)CC1)C2 (centres undefined) | -8.85
Cc1c(C(=O)N2CCOCC2)nnn1-c1ccc2ncccc2c1 | -6.04
CCOCC(=O)Nc1nccn1Cc1ccccc1Cl | 13.6
CC(C)N(C)CC(=O)Nc1nccn1Cc1ccccc1Cl | -2.07
Cc1c(C(=O)N2CCS(=O)(=O)CC2)nnn1-c1ccc2ncccc2c1 | -4.2
CCN(CC)S(=O)(=O)CC(=O)N1CCc2ccc(F)cc21 | -2.84
CCN(CC)S(=O)(=O)CC(=O)N1CCc2ccc(Cl)cc21 | -1.78
OCCOc1cc(F)ccc1NCc1cccc(F)c1F | 1.35
O=C(CNC(=O)c1ccoc1)NC(c1ccc(F)cc1)C(F)(F)F (centres undefined) | -3.8
Cc1cc(CN(C2CC2)C(C)C(C)C)no1 (centres undefined) | -2.85
CC(C)N1CCC(CNC(=O)COc2ccc(F)cc2F)C1 (centres undefined) | 4.12
CCN(CC)C(=O)CN(C)C(=O)c1cccn1CCc1ccccc1 | -3.38

SMILES | cytotoxicity at 70.5 h [%]
CC(C)(C)c1noc(CN2CCCC(CNS(N)(=O)=O)C2)n1 (centres undefined) | -2.1
CN1CCN(C(=O)c2csnn2)c2ccccc21 | 20.8
Cc1nn(-c2ccccc2)c(C)c1CNC(=O)NC1CC(=O)N(C)C1 (centres undefined) | -1.18
CN(CC(=O)N(C)C1CC1)C1CCN(c2ccc(Cl)cc2)CC1 | 24.7
COCCC(C)NCc1ccccc1-n1ccnc1 (centres undefined) | -3.09
CCOCCNC(=O)CCC1CCCO1 (centres undefined) | 35.5
Cc1cc(NC(=O)N2CCN(c3cccs3)CC2)ccc1C(N)=O | 8.16
O=C(NCC1CCOC1)c1cc(-c2ccccc2Cl)[nH]n1 (centres undefined) | -12.9
Cc1ccc(C(=O)N(C)CC(=O)N2CCCC2)c(C)c1 | -16
Cc1cc(N(C)CC2COc3ccccc3O2)nc(C)n1 (centres undefined) | 9.74
O=C1NCCCCC1NC(=O)N1CCc2ccccc21 (centres undefined) | -14.4
COc1ccc2c(c1)CCCN2C(=O)NC1CCCCNC1=O (centres undefined) | 23.6
O=S(=O)(Cc1nc(C2CC2)no1)c1ccccc1F | -11.9
CNS(=O)(=O)c1ccc(CNC(=O)NCc2cc[nH]n2)cc1 | -12.9
O=C1NCCCCC1NC(=O)N1CCCc2cc(F)ccc21 (centres undefined) | -4.74
O=C(NCC1CCOC1)c1cc(-c2cccc(Cl)c2)[nH]n1 (centres undefined) | -17
CC(NC(=O)NC1CCN(Cc2ccncc2)CC1)c1ccc(F)cc1 (centres undefined) | -13.2
Cc1noc(CS(=O)(=O)c2cc(F)ccc2F)n1 | -8.49
CCc1nc(CSc2nnc(N)n2C2CC2)no1 | -7.26
